Values quoted from earlier work in patent publication US20190077874A1, “METHODS AND COMPOSITIONS FOR THE TREATMENT OF TUBEROUS SCLEROSIS” (National Tuberous Sclerosis Association, Inc., priority 2017, published 2019).

Columns and labels:
[1] = test system: refractory partial-onset seizures; conditions: patients with refractory partial-onset seizures
[2] = test system: infantile spasms in the setting of TSC
TSC patients = conditions: previous antiepileptic drugs
[3] = test system: TSC patients with medically refractory epilepsy and SEGAs; conditions: case studies of TSC patients
[4] = most commonly hypertension, immune suppression and infection, electrolyte imbalance etc.
CXCL10 = conditions: TSC mouse model
TSC mouse model = conditions: Zhang et al.
IL-1β = conditions: TSC mouse model

C=CC(N)CCC(=O)O (stereo not drawn) [VGB, vigabatrin]
patients in whom treatment is ineffectual [1]: more than 75% | efficacy in treating infantile spasms [2]: particularly effective | patients in whom the antiepileptic drug failed (TSC patients): 66%

CO[C@H]1C[C@@H]2CC[C@@H](C)[C@@](O)(O2)C(=O)C(=O)N2CCCC[C@H]2C(=O)O[C@H]([C@H](C)C[C@@H]2CC[C@@H](OCCO)[C@H](OC)C2)CC(=O)[C@H](C)/C=C(\C)[C@@H](O)[C@@H](OC)C(=O)[C@H](C)C[C@H](C)/C=C/C=C/C=C/1C [everolimus]
SEGA size [3]: dramatic reduction | seizure frequency [3]: dramatic reduction

CC[C@@H](C(N)=O)N1CCCC1=O [levetiracetam]
patients in whom the antiepileptic drug failed (TSC patients): 67%

CC1(C)O[C@@H]2[C@@H](CO[C@@]3(COS(N)(=O)=O)OC(C)(C)O[C@@H]23)O1 [topiramate]
patients in whom the antiepileptic drug failed (TSC patients): 58%

adrenocorticotropic hormone (SYSMEHFRWGKPVGKKRRPVKVYPNGAEDESAEAFPLEF; Corticotropin; UniProt P01189 138-176, looked up) [ACTH, mainstay therapy for the treatment of seizures in TSC patients]
treated patients with adverse effects [4]: up to 85%

epicatechin-3-gallate
increased production of CXCL10 (CXCL10): reverse the increased production | seizures (TSC mouse model): reduced seizures | survival (TSC mouse model): improved survival | increased production of IL-1β (IL-1β): reverse the increased production
